The target of one assay is T1, HLA A3 (Homo sapiens, UniProt P04439).
T1 construct: EGFP; expressed in transfected cells; host or cells: T2 cells
Description: MHC stabilization assay on T2 cells. Format: cell-based. The note with it: HLA A3 on transfected T2 cells; relative increase vs no peptide at 26° C.

The test system of another assay is HLA A24. Briefly: MHC stabilization assay on T2 cells. The note with it: HLA A24 on transfected T2 cells; relative increase vs no peptide at 26° C. Format: cell-based, human.
The subject of assay [1] is PBMC from healthy HCMV seropositive donors. Briefly: IFN-γ ELISPOT assay. Format: cell-based, human. Particulars: peptide 10 μg/ml. The procedure, abridged:
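IFN-γ-secreting T cells were counted as spots, with no-peptide control wells subtracted and means taken from triplicate wells. These spots came from healthy seropositive carriers' PBMC, 2.5×10^5 per well.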

The test system of a further assay is CD8+ T cells. Description: CD4+/CD8+ analysis of 20-mer peptides (intracellular IFN-γ staining or depletion ELISPOT). Format: cell-based, human. Here is the method:
(§1) To determine whether a particular 20-mer peptide contained either a CD4^+- or CD8^+-restricted epitope, or both, CD4^+/CD8^+ cell depletion ELISPOT assays were performed on PBMC from healthy virus carriers. For any one experiment, three populations of cells were used: a) CD8^+-depleted PBMC, b) CD4^+-depleted PBMC, and c) non-depleted PBMC. These populations of cells were tested concurrently with the same peptides in a conventional ELISPOT assay as described herein above. DYNABEADS M-450 (Dynal, Oslo, Norway) that bound specifically to CD4^+- or CD8^+ cells were used to perform the depletion essentially according to manufacturers instructions. Beads were washed twice in cold PBS supplemented with 2% FCS using magnetic isolation. The requisite number of cells was resuspended in cold PBS supplemented with 2% FCS, added to the beads and then incubated at 4° C., in the dark, for 30 mins (CD8^+ beads) or 60 mins (CD4^+ beads). Populations were depleted of CD4^+ or CD8^+ cells using magnetic separation. After depletion, the non-attached cells were removed and washed once in growth medium, counted and used in conventional ELISPOT assay. Depleted cells were used at 1.7×10^5 cells per well and the non-depleted population was used at the standard 2.5×10^5 cells per well. After the depletion step, each respective cell population was assessed for the purity of CD4^+ and CD8^+ T cells by three-colour flow cytometry. Samples of depleted cell populations were stained with anti-CD3 antibody directly conjugated to fluorescein isothiocyanate (FITC), anti-CD4 antibody conjugated with phycoerythrin (PE) fluorochrome, and anti-CD8 antibody conjugated with Tricolor fluorochrome (described below). The percent of CD3^+/CD4^+ cells present within the CD8^+-depleted population and the percent of CD3^+/CD8^+ cells present within the CD4^+-depleted populations were assessed on FACSCalibur cytometer (Becton Dickinson). The purity of each population was greater than 90% and the results from the ELISPOT assays are expressed as the percentage of CD4+ or CD8^+ cells within the depleted populations that responded toward each peptide by producing IFN-γ.
(§2) PBMCs were incubated at 37° C. in RPMI+10% FCS with and without 10 μg/ml peptides for 6 hours. Golgiplug™ (Pharmingen, San Diego, Calif., USA) was added to the samples according to manufacturer's instructions during the second hour of incubation and cells activated with 25 ng/ml phorbol 12-myristidate 13-acetate (PMA; Sigma-Aldrich Co, St. Louis Mo.) and 1 μg/ml iomomycin (Sigma) acted as a positive control. Following the incubation, 1×10^6 cells/sample were washed and resuspended in staining buffer consisting of PBS with GolgiPlug™, 3% FCS and sodium azide. Cells were then stained with FITC conjugated anti-CD3-FITC (UCHT1, Immunotech, Marseille, France), and either Tricolor (TRI) conjugated anti-CD4 (S3.5, Caltag, Burlingame, Calif.) or anti-CD8 (3B5, Caltag) for 30 minutes, 4° C. in the dark. The cells were fixed for 20 min at 4° C. with Cytofix/Cytoperm™ (BD Biosciences) and resuspended in Perm/Wash™ permeabilization buffer (BD Biosciences) according to manufacturers protocol. Fixed cells were stained with phycoerythrin (PE) conjugated anti-human IFN-γ (B27, Pharmingen) for 30 min at 4° C. in the dark. As a negative control, cells were stained with appropriate isotype matched control antibodies. Cells were washed twice in permeabilization buffer and resuspended in staining buffer before analysis by three-colour flow cytometry on a FACSCalibur cytometer (BD Biosciences). All data analysis was carried out using FlowJo software (Tree Star, Inc. San Carlos, CA).
(§3) When using 20-mer peptides to map epitopes by ELISPOT, it is possible that some responses may be MHC class-II restricted, and not necessarily restricted through HLA class I alleles. It was evident throughout this study that some epitopes identified using ELISPOT could not be confirmed using cytotoxicity analysis. […]

Another assay concerns CD4+ T cells. The assay is described as above. Format: cell-based, human. Here is the method:
as §1, §2, §3

Assay [2] relates to peptide-sensitized autologous PHA blasts or LCLs. Format: cell-based, human. Details: key to CTL response: Y: Yes; ND: Not detected.
Where [3] appears, read: overlapping 20mer peptides, Table 4.

“And” between values parts separate entries of the source, which are not always exact repeats. Identical values can stand only once. Like-named read-outs stand apart in the source and are kept apart here.

T1 sequence (P04439 25-365): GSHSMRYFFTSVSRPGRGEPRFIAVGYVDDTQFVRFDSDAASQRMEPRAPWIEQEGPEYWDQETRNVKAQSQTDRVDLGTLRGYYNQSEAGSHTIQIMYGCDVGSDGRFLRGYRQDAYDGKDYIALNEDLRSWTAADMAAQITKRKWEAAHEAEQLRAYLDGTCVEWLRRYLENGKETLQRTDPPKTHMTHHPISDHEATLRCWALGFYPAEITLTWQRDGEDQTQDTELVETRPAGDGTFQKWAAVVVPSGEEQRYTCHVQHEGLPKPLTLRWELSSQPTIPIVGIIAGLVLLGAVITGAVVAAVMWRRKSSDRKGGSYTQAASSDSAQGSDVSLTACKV
T1 sequence (P61769 21-119, further chain): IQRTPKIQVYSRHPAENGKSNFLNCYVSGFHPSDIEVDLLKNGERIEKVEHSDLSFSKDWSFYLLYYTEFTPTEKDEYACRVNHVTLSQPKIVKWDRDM

As to “ELLAGGRVF (human cytomegalovirus pp28 CTL epitope peptide)”, the “MSE (MHC stabilization efficiency)” value in the assay with HLA A3 was “− (− = 0-50%)”.
On to “SYLKDSDFL (human cytomegalovirus gH CTL epitope peptide)”, for which the “MSE (MHC stabilization efficiency)” value with HLA A24 is recorded as “− (− = 0-50%)”.
Take LLLQRGPQY: in the assay with HLA A3, the “MSE (MHC stabilization efficiency)” value is given as “+++ (+++ = 200-300%)”.
Still for that read-out and setting: under “LVEPCARVY (human cytomegalovirus pp28 CTL epitope peptide)” stands “NT/++ (++ = 100-199%)”; under “ELYLMGSLVH (human cytomegalovirus gH CTL epitope peptide)”, “− (− = 0-50%)”.
On the same count and under the same terms, the value for “IIYTRNHEVK (human cytomegalovirus IE2 CTL epitope peptide)” was “+++ (+++ = 200-300%)”.
On the same count and under the same terms, the value for “LVRLVYILSK (human cytomegalovirus gH CTL epitope peptide)” was “+++ (+++ = 200-300%)”; that for “RLNTYALVSK (human cytomegalovirus gH CTL epitope peptide)” was “+++ (+++ = 200-300%)”.
With “TVRSHCVSK (human cytomegalovirus pp50 CTL epitope peptide)”, in the assay with HLA A3, the “MSE (MHC stabilization efficiency)” value is “+++ (+++ = 200-300%)”.
The same measure, in the same setting: the value for “TLLNCAVTK (human cytomegalovirus pp50 CTL epitope peptide)” was “+++ (+++ = 200-300%)”.
The same measure, in the same setting: the value for “QLNRHSYLK (human cytomegalovirus gH CTL epitope peptide)” was “+++ (+++ = 200-300%)”; that for QVIGDQYVK was “++ (++ = 100-199%)”.
Same read-out and setting: the value for “KLGGALQAK (human cytomegalovirus IE1 CTL epitope peptide)” was “+++ (+++ = 200-300%)”; that for “ELLGRLNVY (human cytomegalovirus pp28 CTL epitope peptide)” was “− (− = 0-50%)”.
On to RVTGGGAMA, for which the “MSE (MHC stabilization efficiency)” value with HLA A3 is recorded as “− (− = 0-50%)”.
Same read-out and setting: under “GIKHEGLVK (human cytomegalovirus pp28 CTL epitope peptide)” stands “+++ (+++ = 200-300%)”; under “ALTVSEHVSY (human cytomegalovirus gH CTL epitope peptide)”, “++ (++ = 100-199%)”.
Same read-out and setting: under GVMTRGRLK stands “+++ (+++ = 200-300%)”; under “ALALFAAAR (human cytomegalovirus gH CTL epitope peptide)”, “− (− = 0-50%)”; under “RLFPDATVP (human cytomegalovirus gH CTL epitope peptide)”, “− (− = 0-50%)”.
With “IMREFNSYK (human cytomegalovirus gB CTL epitope peptide)”, in assay [1] (donor four), the “ELISPOT Responses (SFC/10^6 PBMC)” value is “MB(202) SFC/10^6 PBMC”. In addition, the “MSE (MHC stabilization efficiency)” value with HLA A3 is recorded as “+++ (+++ = 200-300%)”.
Regarding VFTWPPWQAGILARNLVPMV, the “Responding cells (% CD8)” value in the assay with CD8+ T cells (donor delta) worked out at 0.45%. Besides, the “Responding cells (% CD4)” value with CD4+ T cells (donor delta) came out at 0%. In addition, in assay [2] (setting [3]), the CTL response result was “Y”. Moreover, the “ELISPOT Responses (SFC/10^6 PBMC)” value in assay [1] (donor delta) is 533 SFC/10^6 PBMC; in assay [1] (donor four), 420 SFC/10^6 PBMC.
On to “AIIGIYLLY (human cytomegalovirus gH CTL epitope peptide)”, for which, in the assay with HLA A3, the “MSE (MHC stabilization efficiency)” value is “NT/+++ (+++ = 200-300%)”.
In the case of “FEQPTETPPEDLDTLSLAIE (human cytomegalovirus IE2 CTL epitope peptide)”, in the assay on CD8+ T cells (donor fourteen), the “Responding cells (% CD8)” value stood at 0.35%. Further, the “Responding cells (% CD4)” value in the assay with CD4+ T cells (donor fourteen) worked out at 0.2%. In assay [2] (setting [3]), the CTL response result is recorded as “Y”. Also, the “ELISPOT Responses (SFC/10^6 PBMC)” value in assay [1] (donor fourteen) is reported as “RK(791) SFC/10^6 PBMC”.
Take IQIIYTRNHEVKSEVDAVRC: the “Responding cells (% CD8)” value with CD8+ T cells (donor delta) amounted to 0.19%. Also, the “Responding cells (% CD4)” value with CD4+ T cells (donor delta) is 0%. Moreover, the CTL response entry in assay [2] (setting [3]) is listed as “Y”. Also, the “ELISPOT Responses (SFC/10^6 PBMC)” value came out at 203 SFC/10^6 PBMC in assay [1] (donor delta) and 288 SFC/10^6 PBMC in assay [1] (donor seven).
Turning to “RLLDLAPNY (human cytomegalovirus pp28 CTL epitope peptide)”, the “MSE (MHC stabilization efficiency)” value in the assay with HLA A3 is “+++ (+++ = 200-300%)”.
For the sequence SQYRIQGKLEYRHTWDRHDE, the “Responding cells (% CD8)” value in the assay with CD8+ T cells (donor delta) is recorded as 2.0%. Besides, in the assay on CD4+ T cells (donor delta), the “Responding cells (% CD4)” value was found to be 0%. The CTL response entry in assay [2] (setting [3]) is “Y”. The “ELISPOT Responses (SFC/10^6 PBMC)” value in assay [1] (donor delta) is “SE(1203) SFC/10^6 PBMC”.
Take “MQLIPDDYSNTHSTRYVTVK (human cytomegalovirus gB CTL epitope peptide)”: the “Responding cells (% CD8)” value in the assay with CD8+ T cells (donor four) was 0.03%. In addition, the “Responding cells (% CD4)” value with CD4+ T cells (donor four) worked out at 0.06%. Besides, the CTL response entry in assay [2] (setting [3]) is listed as “Y”. Moreover, the “ELISPOT Responses (SFC/10^6 PBMC)” value in assay [1] (donor four) was 238 SFC/10^6 PBMC and 302 SFC/10^6 PBMC; in assay [1] (donor seven), “SB(157) SFC/10^6 PBMC”.
“KMTATFLSK (human cytomegalovirus gB CTL epitope peptide)”: the “MSE (MHC stabilization efficiency)” value with HLA A3 is “+++ (+++ = 200-300%)”.
In the case of QYDPVAALFFFDIDLLLQRG, in the assay with CD8+ T cells (donor seven), the “Responding cells (% CD8)” value is 0.03%. The “Responding cells (% CD4)” value with CD4+ T cells (donor seven) was 0.22%. In assay [2] (setting [3]), the CTL response entry is reported as “Y”. Further, in assay [1] (donor seven), the “ELISPOT Responses (SFC/10^6 PBMC)” value is reported as “SB(97) SFC/10^6 PBMC”.
In the case of “SLRNSTVVR (human cytomegalovirus gH CTL epitope peptide)”, the “MSE (MHC stabilization efficiency)” value in the assay with HLA A3 is on record as “+++ (+++ = 200-300%)”.
For the sequence CSPDEIMAYAQKIFKILDEE, the “Responding cells (% CD8)” value in the assay with CD8+ T cells (donor five) came out at 0.4%. The “Responding cells (% CD4)” value in the assay on CD4+ T cells (donor five) is recorded as 0.53%. The CTL response entry in assay [2] is listed as “Y”. Besides, the “ELISPOT Responses (SFC/10^6 PBMC)” value in assay [1] (donor five) is on record as “CS(1532) SFC/10^6 PBMC”.
On to QQNQWKEPDVYYTSAFVFPT, for which the “Responding cells (% CD8)” value in the assay with CD8+ T cells (donor eight) is recorded as 0.03%. In the assay with CD4+ T cells (donor eight), the “Responding cells (% CD4)” value is 0%. In addition, the CTL response result in assay [2] (setting [3]) was “Y”. The “ELISPOT Responses (SFC/10^6 PBMC)” value in assay [1] (donor eight) is “JW(600) SFC/10^6 PBMC”.
YPSAAERKHRHLPVADAVIH: the “Responding cells (% CD8)” value in the assay with CD8+ T cells (donor delta) was 0.313%. Further, the “Responding cells (% CD4)” value in the assay on CD4+ T cells (donor delta) came to 0%. Besides, in assay [2] (setting [3]), the CTL response result is “Y”. Further, the “ELISPOT Responses (SFC/10^6 PBMC)” value in assay [1] (donor delta) is given as “SE(350) SFC/10^6 PBMC”.
Turning to “YLMDELRYVK (human cytomegalovirus gH CTL epitope peptide)”, the “MSE (MHC stabilization efficiency)” value in the assay with HLA A3 is recorded as “− (− = 0-50%)”.
Take PQYSEHPTFTSQYRIQGKLE: the entries for the “Responding cells (% CD8)” value in the assay on CD8+ T cells (donor delta), in the assay on CD8+ T cells (donor four) and in the assay on CD8+ T cells (donor fourteen) were 0.87%, 0% and 0.96%, respectively. Moreover, the “Responding cells (% CD4)” value in the assay with CD4+ T cells (donor delta) is on record as 0%; with CD4+ T cells (donor four), 0.05%; in the assay with CD4+ T cells (donor fourteen), 1.69%. Also, in assay [2], the CTL response entry is “Y”. The “ELISPOT Responses (SFC/10^6 PBMC)” value is recorded as 980 SFC/10^6 PBMC in assay [1] (donor delta), “MB(413) SFC/10^6 PBMC” in assay [1] (donor four) and 1393 SFC/10^6 PBMC in assay [1] (donor fourteen).

(Values after patent US7524503B2, “Human cytomegalovirus (HCMV) cytotoxic T cell epitopes, polyepitopes compositions comprising same and diagnostic and prophylactic and therapeutic uses therefor” (priority 2001, dated 2009).)
